Assay [1] deals with Tetrahymena thermophila. Kind of assay: Binding affinity to Tetrahymena thermophila telomeric 7 G-quadruplex DNA assessed as binding constant Kb1 in presence of 10 mM KCl by fluorescence spectroscopy.
The test system of assay [2] is Tetrahymena thermophila. Kind of assay: Binding affinity to Tetrahymena thermophila telomeric 7 G-quadruplex DNA assessed as binding constant Kb2 in presence of 10 mM KCl by fluorescence spectroscopy.

For `COc1cccc2c1C(=O)c1c(O)c3c(c(O)c1C2=O)C[C@@](O)(C(C)=O)C[C@@H]3O[C@H]1C[C@H](N)[C@H](O)[C@H](C)O1`, the Kb with Tetrahymena thermophila [1] amounted to 6.3 ×10⁵ /M; in the assay on Tetrahymena thermophila [2], 1.3 ×10⁵ /M.
